Reference: ChEMBL document CHEMBL5365451, “Discovery of CVN417, a Novel Brain-Penetrant α6-Containing Nicotinic Receptor Antagonist for the Modulation of Motor Dysfunction” (J Med Chem, 2023)
Activity calls are given as the source filed them. The calls are words filed in the database; no cut-off is given here.

Key:
[1] = Drug exposure in Sprague-Dawley rat brain at 3 mg/kg, po measured for 2 hrs by LC-MS/MS analysis; assay type: ADME, organism-based; conditions: read-out: Drug uptake
[2] = Antagonist activity at human alpha6-alpha3/beta2/beta3 V273S mutant nAChR expressed in HEK293 cells assessed as nicotine-induced intracellular calcium release incubated for 15 mins by FLIPR analysis; assay type: cell-based; conditions: HEK293, 0.25 h
[3] = Intrinsic clearance in Sprague-Dawley rat at 0.5 mg/kg, iv by LC-MS/MS analysis; assay type: ADME, organism-based; conditions: in vivo
[4] = Oral bioavailability in Sprague-Dawley rat 3 mg/kg by LC-MS/MS analysis; assay type: ADME, organism-based; conditions: in vivo
[5] = target: Neuronal acetylcholine receptor; alpha4/beta2 (Homo sapiens, UniProt P17787+P43681); assay: Antagonist activity at human alpha4/beta2 nAChR expressed in HEK293 cells assessed as nicotine-induced intracellular calcium release incubated for 15 mins by FLIPR analysis; assay type: cell-based
Neuronal acetylcholine receptor; alpha4/beta2, sequence (P17787 whole entry): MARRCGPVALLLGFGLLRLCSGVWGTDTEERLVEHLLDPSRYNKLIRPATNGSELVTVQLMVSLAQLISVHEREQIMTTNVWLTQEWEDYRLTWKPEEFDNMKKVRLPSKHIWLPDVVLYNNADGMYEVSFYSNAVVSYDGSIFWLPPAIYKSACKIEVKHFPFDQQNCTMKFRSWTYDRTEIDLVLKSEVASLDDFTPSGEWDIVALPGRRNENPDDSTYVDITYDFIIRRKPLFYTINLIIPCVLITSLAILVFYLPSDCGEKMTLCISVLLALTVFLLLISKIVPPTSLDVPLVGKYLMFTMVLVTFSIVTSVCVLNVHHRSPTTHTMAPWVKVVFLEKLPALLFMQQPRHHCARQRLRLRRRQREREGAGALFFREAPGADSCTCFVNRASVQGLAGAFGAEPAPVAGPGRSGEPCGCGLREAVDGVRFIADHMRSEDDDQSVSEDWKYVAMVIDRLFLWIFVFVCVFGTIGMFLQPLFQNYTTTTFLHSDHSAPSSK
Neuronal acetylcholine receptor; alpha4/beta2, sequence (P43681 whole entry): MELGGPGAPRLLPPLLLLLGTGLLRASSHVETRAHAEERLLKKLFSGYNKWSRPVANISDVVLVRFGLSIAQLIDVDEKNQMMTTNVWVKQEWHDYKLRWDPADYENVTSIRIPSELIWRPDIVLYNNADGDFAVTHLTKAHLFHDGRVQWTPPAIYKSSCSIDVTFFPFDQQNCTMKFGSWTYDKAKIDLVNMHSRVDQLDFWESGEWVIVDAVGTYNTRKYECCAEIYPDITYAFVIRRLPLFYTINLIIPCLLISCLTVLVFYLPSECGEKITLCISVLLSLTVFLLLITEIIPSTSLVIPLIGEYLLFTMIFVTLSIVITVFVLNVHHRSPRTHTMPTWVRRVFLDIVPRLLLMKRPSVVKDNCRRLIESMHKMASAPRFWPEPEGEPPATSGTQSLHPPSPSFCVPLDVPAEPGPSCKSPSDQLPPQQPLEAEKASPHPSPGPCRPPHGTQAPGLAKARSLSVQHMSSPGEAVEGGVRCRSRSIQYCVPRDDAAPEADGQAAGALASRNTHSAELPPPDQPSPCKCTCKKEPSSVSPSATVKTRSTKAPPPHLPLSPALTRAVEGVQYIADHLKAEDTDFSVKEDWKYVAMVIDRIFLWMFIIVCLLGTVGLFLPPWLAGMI

[6] = target: Neuronal acetylcholine receptor; alpha3/beta4 (Homo sapiens, UniProt P30926+P32297); assay: Antagonist activity at human alpha3/beta4 nAChR expressed in HEK293 cells assessed as nicotine-induced intracellular calcium release incubated for 15 mins by FLIPR analysis; assay type: cell-based
Neuronal acetylcholine receptor; alpha3/beta4, sequence (P30926 whole entry): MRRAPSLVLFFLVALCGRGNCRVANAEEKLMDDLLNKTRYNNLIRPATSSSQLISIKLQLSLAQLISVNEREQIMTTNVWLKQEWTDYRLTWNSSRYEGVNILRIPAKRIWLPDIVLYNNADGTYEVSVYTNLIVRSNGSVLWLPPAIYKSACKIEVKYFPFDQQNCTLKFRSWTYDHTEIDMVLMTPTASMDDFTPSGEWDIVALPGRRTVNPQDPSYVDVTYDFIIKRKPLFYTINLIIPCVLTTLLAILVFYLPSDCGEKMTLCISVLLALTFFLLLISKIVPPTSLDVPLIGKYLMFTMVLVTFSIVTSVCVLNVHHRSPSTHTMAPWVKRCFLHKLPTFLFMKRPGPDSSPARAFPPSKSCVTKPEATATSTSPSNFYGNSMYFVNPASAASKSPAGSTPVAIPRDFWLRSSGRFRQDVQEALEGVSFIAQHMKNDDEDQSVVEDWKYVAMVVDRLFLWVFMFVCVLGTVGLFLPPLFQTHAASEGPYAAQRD
Neuronal acetylcholine receptor; alpha3/beta4, sequence (P32297 whole entry): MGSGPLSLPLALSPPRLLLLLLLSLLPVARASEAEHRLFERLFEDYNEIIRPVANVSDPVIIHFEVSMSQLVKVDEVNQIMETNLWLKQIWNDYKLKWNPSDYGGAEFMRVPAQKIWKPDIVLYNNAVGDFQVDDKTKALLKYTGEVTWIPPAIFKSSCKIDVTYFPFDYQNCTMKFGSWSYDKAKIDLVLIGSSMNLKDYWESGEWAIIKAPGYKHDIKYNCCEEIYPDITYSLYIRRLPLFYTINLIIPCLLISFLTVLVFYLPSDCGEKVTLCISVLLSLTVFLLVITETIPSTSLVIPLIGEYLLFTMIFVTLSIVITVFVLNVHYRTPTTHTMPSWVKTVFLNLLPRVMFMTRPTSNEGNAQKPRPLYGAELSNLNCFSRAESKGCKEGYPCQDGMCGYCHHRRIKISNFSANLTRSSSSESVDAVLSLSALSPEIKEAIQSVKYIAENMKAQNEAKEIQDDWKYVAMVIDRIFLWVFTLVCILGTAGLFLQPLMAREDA

[7] = Volume of distribution at steady state in Sprague-Dawley rat at 0.5 mg/kg, iv by LC-MS/MS analysis; assay type: ADME, organism-based; conditions: in vivo, read-out: Vdss
[8] = Metabolic stability in human liver microsome assessed as clearance at 10 uM incubated upto 2 hrs by LC-MS/MS analysis; assay type: ADME; conditions: liver microsomes, read-out: CLH
[9] = Metabolic stability in rat liver microsome assessed as clearance at 10 uM incubated upto 2 hrs by LC-MS/MS analysis; assay type: ADME; conditions: liver microsomes, read-out: CLH
[10] = target: T1, D(4) dopamine receptor (Homo sapiens, UniProt P21917); assay: Antagonist activity at human D4 receptor; assay type: functional
T1 sequence (P21917 whole entry): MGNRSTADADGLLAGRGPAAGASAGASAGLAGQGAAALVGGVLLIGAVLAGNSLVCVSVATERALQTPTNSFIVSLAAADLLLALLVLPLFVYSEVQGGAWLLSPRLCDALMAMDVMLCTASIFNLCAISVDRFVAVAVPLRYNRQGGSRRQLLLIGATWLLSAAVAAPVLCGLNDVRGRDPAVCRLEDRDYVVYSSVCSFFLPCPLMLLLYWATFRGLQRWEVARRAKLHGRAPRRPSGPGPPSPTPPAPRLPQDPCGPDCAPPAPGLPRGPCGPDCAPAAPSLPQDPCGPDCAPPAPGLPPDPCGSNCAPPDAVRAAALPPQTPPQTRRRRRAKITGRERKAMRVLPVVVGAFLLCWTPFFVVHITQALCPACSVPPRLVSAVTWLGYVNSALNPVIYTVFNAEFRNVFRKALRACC

[11] = target: T2, Sodium-dependent noradrenaline transporter (Homo sapiens, UniProt P23975); assay: Binding affinity to human NET relative to control
T2 sequence (P23975 whole entry): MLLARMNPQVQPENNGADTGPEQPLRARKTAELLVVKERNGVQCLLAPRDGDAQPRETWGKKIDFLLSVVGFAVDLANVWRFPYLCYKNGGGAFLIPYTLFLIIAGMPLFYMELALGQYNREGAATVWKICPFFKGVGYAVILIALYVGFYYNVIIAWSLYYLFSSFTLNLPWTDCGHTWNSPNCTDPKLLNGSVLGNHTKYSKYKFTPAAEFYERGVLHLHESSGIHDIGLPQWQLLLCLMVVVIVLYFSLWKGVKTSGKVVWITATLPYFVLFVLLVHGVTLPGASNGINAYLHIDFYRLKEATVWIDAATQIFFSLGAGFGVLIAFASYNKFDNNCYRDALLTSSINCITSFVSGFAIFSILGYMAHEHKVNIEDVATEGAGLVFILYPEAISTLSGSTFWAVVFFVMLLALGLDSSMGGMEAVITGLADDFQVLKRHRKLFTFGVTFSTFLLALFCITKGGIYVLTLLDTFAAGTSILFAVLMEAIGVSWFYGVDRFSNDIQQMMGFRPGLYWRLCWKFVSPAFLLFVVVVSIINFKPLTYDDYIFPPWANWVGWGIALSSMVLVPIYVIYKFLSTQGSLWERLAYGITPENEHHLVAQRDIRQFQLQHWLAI

[12] = species on record: Mus musculus; assay: Anti-parkinson activity in C57BL6/J mouse model assessed as reduction in Ip induced DA release in striatum by fast-scan cyclic voltammetry analysis; assay type: functional, organism-based
[13] = Protein binding in mouse brain assessed as unbound fraction by rapid equilibrium dialysis; assay type: ADME, tissue-based
[14] = Metabolic stability in dog liver microsome assessed as intrinsic clearance preincubated for 60 mins followed by NADPH addition and measured after 60 mins by LC-MS/MS analysis; assay type: ADME, Canis lupus familiaris; conditions: liver microsomes, time 120 min, read-out: CLH
[15] = Metabolic stability in human liver microsome assessed as intrinsic clearance preincubated for 60 mins followed by NADPH addition and measured after 60 mins by LC-MS/MS analysis; assay type: ADME; conditions: liver microsomes, time 120 min, read-out: CLH
[16] = Ratio of drug concentration in Sprague-Dawley rat brain to plasma assessed as unbound fraction at 10 mg/kg, po measured after 6 hrs by LC-MS/MS analysis; assay type: ADME, organism-based; conditions: read-out: K(p,uu,brain)
[17] = target: Neuronal acetylcholine receptor subunit alpha-7 (Homo sapiens) (UniProt P36544); assay: Antagonist activity at human alpha7 nAChR at 10 uM relative to control; set-up: scale not given: the % may be the effect or the level left
Neuronal acetylcholine receptor subunit alpha-7 (Homo sapiens), sequence (P36544 whole entry): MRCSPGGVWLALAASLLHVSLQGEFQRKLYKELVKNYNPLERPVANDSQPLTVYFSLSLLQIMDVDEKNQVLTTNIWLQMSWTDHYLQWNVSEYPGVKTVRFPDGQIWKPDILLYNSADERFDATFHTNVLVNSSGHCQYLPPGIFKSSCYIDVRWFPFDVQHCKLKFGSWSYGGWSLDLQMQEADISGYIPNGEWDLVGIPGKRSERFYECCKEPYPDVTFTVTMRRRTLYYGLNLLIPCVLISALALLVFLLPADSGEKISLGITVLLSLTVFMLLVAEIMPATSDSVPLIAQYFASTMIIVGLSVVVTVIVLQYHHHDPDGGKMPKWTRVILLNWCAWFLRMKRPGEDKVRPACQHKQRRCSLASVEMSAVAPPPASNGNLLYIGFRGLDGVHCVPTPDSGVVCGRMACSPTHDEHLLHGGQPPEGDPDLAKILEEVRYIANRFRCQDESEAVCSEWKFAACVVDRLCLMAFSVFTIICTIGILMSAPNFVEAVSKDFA

[18] = Half life in Sprague-Dawley rat at 3 mg/kg, po by LC-MS/MS analysis; assay type: ADME, organism-based; conditions: in vivo
[19] = Cmax in Sprague-Dawley rat at 10 mg/kg, po by LC-MS/MS analysis; assay type: ADME, organism-based; set-up: dose 10 mg/kg, route po; conditions: in vivo
[20] = Protein binding in rat brain assessed as unbound fraction by rapid equilibrium dialysis; assay type: ADME, tissue-based
[21] = Metabolic stability in rat liver microsome assessed as intrinsic clearance preincubated for 60 mins followed by NADPH addition and measured after 60 mins by LC-MS/MS analysis; assay type: ADME; conditions: liver microsomes, time 120 min, read-out: CLH
[22] = Metabolic stability in dog hepatocytes assessed as intrinsic clearance measured per 10^6 cells; assay type: ADME, cell-based, Canis lupus familiaris, Hepatocyte
[23] = Metabolic stability in rat hepatocytes assessed as intrinsic clearance measured per 10^6 cells; assay type: ADME, cell-based, Hepatocyte
[24] = species on record: Rattus norvegicus; assay: Anti-parkinson activity in Sprague-Dawley rat model assessed as decrease in spontaneous firing frequency measured after 15 mins by whole cell patch assay; assay type: functional, organism-based
[25] = species on record: Mus musculus; assay: Anti-parkinson activity in C57BL6/J mouse model assessed as reduction in Ip induced DA release in striatum in presence of DHbetaE by fast-scan cyclic voltammetry analysis; assay type: functional, organism-based
[26] = test system: Rattus norvegicus; assay: Protection against tacrine-induced Sprague-Dawley rat tremulous jaw model assessed as decrease in tremor jaw movement at 3 to 25 mg/kg, po pretreated with compound for 90 mins followed by tacrine addition and measured after 5 mins; assay type: functional, organism-based; conditions: dose 3-25 mg/kg, time 95.0 min
[27] = Metabolic stability in mouse liver microsome assessed as intrinsic clearance preincubated for 60 mins followed by NADPH addition and measured after 60 mins by LC-MS/MS analysis; assay type: ADME; conditions: liver microsomes, time 120 min, read-out: CLH
[28] = AUC (0 to infinity) in Sprague-Dawley rat at 10 mg/kg, po by LC-MS/MS analysis; assay type: ADME, organism-based; set-up: dose 10 mg/kg, route po; conditions: in vivo
[29] = Half life in Sprague-Dawley rat at 10 mg/kg, po by LC-MS/MS analysis; assay type: ADME, organism-based; conditions: in vivo
[30] = Clearance in Sprague-Dawley rat at 0.5 mg/kg, iv by LC-MS/MS analysis; assay type: ADME, organism-based; conditions: in vivo
[31] = species on record: Mus musculus; assay: Anti-parkinson activity in C57BL6/J mouse model assessed as reduction in 5p 50 Hz induced DA release in striatum by fast-scan cyclic voltammetry analysis; assay type: functional, organism-based
[32] = test system: Brain; assay: Drug concentration in po dosed Sprague-Dawley rat brain measured after 2 hrs by LC-MS/MS analysis; assay type: functional, organism-based; conditions: dose 3-25 mg/kg
[33] = Plasma protein binding in rat assessed as unbound fraction by rapid equilibrium dialysis; assay type: ADME, cell-free
[34] = Oral bioavailability in Sprague-Dawley rat at 10 mg/kg by LC-MS/MS analysis; assay type: ADME, organism-based; conditions: in vivo
[35] = test system: Rattus norvegicus; assay: Protection against tacrine-induced Sprague-Dawley rat tremulous jaw model assessed as decrease in tremor jaw movement at 25 mg/kg, po pretreated with compound for 90 mins followed by tacrine addition and measured after 5 mins; assay type: functional; set-up: scale not given: the % may be the effect or the level left; conditions: time 95 min, 1.583 h
[36] = Oral bioavailability in Sprague-Dawley rat at 3 mg/kg by LC-MS/MS analysis; assay type: ADME, organism-based; conditions: in vivo
[37] = species on record: Rattus norvegicus; assay: Antagonist activity at rat I2 receptor relative to control; set-up: scale not given: the % may be the effect or the level left; conditions: filed as antagonist
[38] = target: T2, Sodium-dependent noradrenaline transporter; assay: Binding affinity to human NET
[39] = Plasma protein binding in human assessed as unbound fraction by rapid equilibrium dialysis; assay type: ADME, cell-free
[40] = target: Sigma non-opioid intracellular receptor 1 (Cavia porcellus) (UniProt Q60492); assay: Agonist activity at guinea pig sigma 1 relative to control; conditions: filed as agonist
Sigma non-opioid intracellular receptor 1 (Cavia porcellus), sequence (Q60492 whole entry): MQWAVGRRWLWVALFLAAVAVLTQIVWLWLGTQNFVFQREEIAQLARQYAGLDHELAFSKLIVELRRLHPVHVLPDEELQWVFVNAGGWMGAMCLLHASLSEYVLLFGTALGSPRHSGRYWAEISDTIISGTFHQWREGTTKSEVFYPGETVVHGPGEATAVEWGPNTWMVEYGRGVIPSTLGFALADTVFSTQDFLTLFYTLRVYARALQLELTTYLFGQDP

[41] = species on record: Mus musculus; assay: Anti-parkinson activity in C57BL6/J mouse model assessed as reduction in 10p 50 Hz induced DA release in striatum by fast-scan cyclic voltammetry analysis; assay type: functional, organism-based
[42] = Metabolic stability in mouse hepatocytes assessed as intrinsic clearance measured per 10^6 cells; assay type: ADME, cell-based, Hepatocyte
[43] = test system: Rattus norvegicus; assay: Protection against tacrine-induced po dosed Sprague-Dawley rat tremulous jaw model assessed as decrease in tremor duration pretreated with compound for 90 mins followed by tacrine addition and measured after 5 mins; assay type: functional, organism-based; conditions: dose 3-25 mg/kg, time 95.0 min
[44] = AUC (0 to infinity) in Sprague-Dawley rat at 1 mg/kg, iv by LC-MS/MS analysis; assay type: ADME, organism-based; set-up: dose 1 mg/kg, route iv; conditions: in vivo
[45] = Volume of distribution at steady state in Sprague-Dawley rat at 1 mg/kg, iv by LC-MS/MS analysis; assay type: ADME, organism-based; conditions: in vivo, read-out: Vdss
[46] = target: T3, D(4) dopamine receptor (Homo sapiens) (UniProt P21917); assay: Antagonist activity at human D4 receptor relative to control; assay type: functional; set-up: scale not given: the % may be the effect or the level left; conditions: filed as antagonist
T3 sequence (whole entry): T1 sequence (P21917 whole entry)

[47] = AUC (0 to infinity) in Sprague-Dawley rat at 0.5 mg/kg, iv by LC-MS/MS analysis; assay type: ADME, organism-based; set-up: dose 0.5 mg/kg, route iv; conditions: in vivo
[48] = Metabolic stability in human hepatocytes assessed as intrinsic clearance measured per 10^6 cells; assay type: ADME, cell-based, Hepatocyte
[49] = Plasma protein binding in mouse assessed as unbound fraction by rapid equilibrium dialysis; assay type: ADME, cell-free

Compound `CN1CCC(NC(=O)c2cc(-c3ccc(C(F)(F)F)cc3)n(C)n2)CC1` has a concentration at 2 h [1] of 2970 nM, an IC50 [2] of 139 nM and a CL [3] of 41.5 mL/min/kg. For the same compound, the bioavailability [4] was 70.1%, the IC50 [5] was 1040 nM and the IC50 [6] was 4960 nM. It also gave a Vd [7] of 25.7 L/kg.

`Cn1nc(C(=O)NCC2CCCOC2)cc1-c1ccc(C(F)(F)F)cc1` (racemic) gave an IC50 [2] of 3290 nM.

In the case of `COc1ccc(-c2cc(C(=O)N[C@H]3CN(C)CCC3(F)F)nn2C)c(Cl)c1`, the IC50 [2] is reported as 115 nM, the microsomal CLint at 10 µM [8] is reported as 75.5 µL/min/mg and the microsomal CLint at 10 µM [9] is reported as 204 µL/min/mg.

Compound `COc1ccc(-c2cc(C(=O)N[C@H]3CCCN(C)C3)nn2C)c(Cl)c1` has a concentration at 2 h [1] of 1820 nM, an IC50 [10] of 1290 nM and an Activity [11] of 62%. For the same compound, the Activity [12] was “Active”, the fraction unbound [13] was 0.053 and the microsomal CLint [14] was 27.7 µL/min/mg. For the same compound, the IC50 [2] was 86 nM, the microsomal CLint [15] was 2.8 µL/min/mg and the Kp uu at 6 h [16] was 1.4. For the same compound, the Activity [17] was 13%, the half-life [18] was 7.8 h and the Cmax [19] was 350 nM. The fraction unbound [20] was 0.068, the microsomal CLint [21] was 31.2 µL/min/mg and the CLint [22] was 32.3 µL/min/1e6 cells. The CLint [23] was 20.8 µL/min/1e6 cells, the Activity [24] was “Active” and the Activity [25] was “Active”. The Activity [26] was “Active”, the microsomal CLint [27] was 33.3 µL/min/mg and the AUC(0-inf) [28] was 775 ng·h/mL. For the same compound, the half-life [29] was 5.9 h, the clearance [30] was 38.2 mL/min/kg and the Activity [31] was “Active”. For the same compound, the Drug uptake [32] was “Dose-Dependent Effect”, the fraction unbound [33] was 0.202 and the bioavailability [34] was 11%. It also gave an Activity [35] of 18.9%, a bioavailability [36] of 43.8% and an Activity [37] of 84%. It also gave an IC50 [38] of 44700 nM, a fraction unbound [39] of 0.3 and an IC50 [5] of 657 nM. The Activity [40] was 51%, the Activity [41] was “Active” and the CLint [42] was 25.1 µL/min/1e6 cells. For the same compound, the IC50 [6] was 2560 nM, the Activity [43] was “Dose-Dependent Effect” and the AUC [44] was 13.5 ng·h/mL. The Vd [45] was 11.4 L/kg, the Activity [46] was 90% and the Vd [7] was 12.3 L/kg. It also gave an AUC(0-inf) [47] of 205 ng·h/mL, a CLint [48] of 3.7 µL/min/1e6 cells and a fraction unbound [49] of 0.25.

Work on `[2H]C([2H])([2H])Oc1ccc(-c2cc(C(=O)N[C@H]3CCCN(C([2H])([2H])[2H])C3)nn2C([2H])([2H])[2H])c(Cl)c1` yielded an IC50 [2] of 89 nM, a microsomal CLint at 10 µM [8] of 0.7 µL/min/mg and a microsomal CLint at 10 µM [9] of 11 µL/min/mg.
